Data from PubChem BioAssay AID1745844 (Carcinogenic Potency Database (CPDB), 2022).
Calls of active or inactive are those of the source. The rule behind the calls is not given here.

System: rodent lifetime carcinogenesis bioassay, tumor incidence TD50
Test: carcinogenic potency in animals, long-term in vivo studies, CPDB compilation (AID 1745844)

In the case of `O=C(O)CCCC/C=C(\c1ccccc1)c1cccnc1`, the carcinogen call (mouse, strain Charles River CD1, females, in feed, site: any site (literature study), lesion: several types, types named in the paper, dosed 104 weeks, study length 104 weeks) was “negative (inactive)”, the TD50 (mouse, strain Charles River CD1, females, in feed, site: liver, lesion: hepatocellular adenoma, dosed 104 weeks, study length 104 weeks) was 4930 mg/kg/day (inactive) and the carcinogen call (mouse, strain Charles River CD1, females, in feed, site: lung, lesion: alveolar/bronchiolar adenoma, dosed 104 weeks, study length 104 weeks) was “negative (inactive)”. The carcinogen call (mouse, strain Charles River CD1, females, in feed, site: lung, lesion: alveolar/bronchiolar carcinoma, dosed 104 weeks, study length 104 weeks) was “negative (inactive)”, the TD50 (mouse, strain Charles River CD1, males, in feed, site: any site (literature study), lesion: several types, types named in the paper, dosed 104 weeks, study length 104 weeks) was 1090 mg/kg/day (inactive) and the TD50 (mouse, strain Charles River CD1, males, in feed, site: liver, lesion: hepatocellular adenoma, dosed 104 weeks, study length 104 weeks) was 2050 mg/kg/day (inactive). For the same molecule, the TD50 (mouse, strain Charles River CD1, males, in feed, site: liver, lesion: hepatocellular carcinoma, dosed 104 weeks, study length 104 weeks) was 10200 mg/kg/day (inactive), the TD50 (mouse, strain Charles River CD1, males, in feed, site: lung, lesion: alveolar/bronchiolar adenoma, dosed 104 weeks, study length 104 weeks) was 1220 mg/kg/day (inactive) and the carcinogen call (mouse, strain Charles River CD1, males, in feed, site: lung, lesion: alveolar/bronchiolar carcinoma, dosed 104 weeks, study length 104 weeks) was “negative (inactive)”. The carcinogen call (rat, strain Charles River CD (Sprague-Dawley), females, in feed, site: liver, lesion: hepatocellular adenoma, dosed 104 weeks, study length 104 weeks) was “negative (inactive)” and the carcinogen call (rat, strain Charles River CD (Sprague-Dawley), males, in feed, site: liver, lesion: hepatocellular adenoma, dosed 104 weeks, study length 104 weeks) was “negative (inactive)”.
For `C1CNCCN1`, the TD50 (rat, strain MRC, females, in drinking water, site: any site (literature study), lesion: several types, types named in the paper, dosed 75 weeks, study length 104 weeks) was 11.2 mg/kg/day.
For `O=Nc1ccc(NO)cc1`, the TD50 (mouse, strain B6C3F1, females, in feed, site: any site (literature study), lesion: several types, types named in the paper, dosed 104 weeks, study length 105 weeks) was 6710 mg/kg/day (inactive), the TD50 (mouse, strain B6C3F1, females, in feed, site: liver, lesion: hepatocellular adenoma + hepatocellular carcinoma + neoplastic nodule, dosed 104 weeks, study length 105 weeks) was 656 mg/kg/day and the TD50 (mouse, strain B6C3F1, females, in feed, site: lung, lesion: alveolar/bronchiolar adenoma + alveolar/bronchiolar carcinoma, dosed 104 weeks, study length 105 weeks) was 6660 mg/kg/day. The TD50 (mouse, strain B6C3F1, males, in feed, site: any site (literature study), lesion: several types, types named in the paper, dosed 104 weeks, study length 105 weeks) was 936 mg/kg/day (inactive), the TD50 (mouse, strain B6C3F1, males, in feed, site: liver, lesion: hepatocellular adenoma + hepatocellular carcinoma + neoplastic nodule, dosed 104 weeks, study length 105 weeks) was 1.23e+06 mg/kg/day and the TD50 (rat, strain Fischer 344, females, in feed, site: urinary bladder, lesion: squamous-cell carcinoma + transitional-cell carcinoma + transitional-cell papilloma, dosed 104 weeks, study length 105 weeks) was 106 mg/kg/day. The TD50 (rat, strain Fischer 344, females, in feed, site: urinary bladder, lesion: transitional-cell carcinoma, dosed 104 weeks, study length 105 weeks) was 182 mg/kg/day, the TD50 (rat, strain Fischer 344, males, in feed, site: any site (literature study), lesion: several types, types named in the paper, dosed 104 weeks, study length 105 weeks) was 349 mg/kg/day (inactive) and the TD50 (rat, strain Fischer 344, males, in feed, site: liver, lesion: hepatocellular adenoma + hepatocellular carcinoma + neoplastic nodule, dosed 104 weeks, study length 105 weeks) was 1130 mg/kg/day.
With `Nc1ccc(/C=C/c2ccc(N)c(S(=O)(=O)O)c2)c(S(=O)(=O)O)c1` the carcinogen call (mouse, strain B6C3F1, females, in feed, site: any site (literature study), lesion: several types, types named in the paper, dosed 103 weeks, study length 104 weeks) was “negative (inactive)”, the TD50 (mouse, strain B6C3F1, males, in feed, site: any site (literature study), lesion: several types, types named in the paper, dosed 103 weeks, study length 104 weeks) was 12900 mg/kg/day and the TD50 (mouse, strain B6C3F1, males, in feed, site: liver, lesion: hepatocellular adenoma + hepatocellular carcinoma + neoplastic nodule, dosed 103 weeks, study length 104 weeks) was 9720 mg/kg/day. For the same molecule, the TD50 (mouse, strain B6C3F1, males, in feed, site: liver, lesion: hepatocellular adenoma, dosed 103 weeks, study length 104 weeks) was 2570 mg/kg/day (inactive), the TD50 (rat, strain Fischer 344, females, in feed, site: any site (literature study), lesion: several types, types named in the paper, dosed 103 weeks, study length 104 weeks) was 17600 mg/kg/day (inactive) and the TD50 (rat, strain Fischer 344, males, in feed, site: any site (literature study), lesion: several types, types named in the paper, dosed 103 weeks, study length 104 weeks) was 5810 mg/kg/day (inactive). The TD50 (rat, strain Fischer 344, males, in feed, site: liver, lesion: hepatocellular adenoma + hepatocellular carcinoma + neoplastic nodule, dosed 103 weeks, study length 104 weeks) was 5020 mg/kg/day.
For `Oc1ccccc1`, the carcinogen call (mouse, strain B6C3F1, females, in drinking water, site: any site (literature study), lesion: several types, types named in the paper, dosed 103 weeks, study length 104 weeks) was “negative (inactive)”, the TD50 (mouse, strain B6C3F1, females, in drinking water, site: lung, lesion: alveolar/bronchiolar adenoma + alveolar/bronchiolar carcinoma, dosed 103 weeks, study length 104 weeks) was 18500 mg/kg/day and the carcinogen call (mouse, strain B6C3F1, males, in drinking water, site: any site (literature study), lesion: several types, types named in the paper, dosed 103 weeks, study length 104 weeks) was “negative (inactive)”. For the same molecule, the TD50 (mouse, strain B6C3F1, males, in drinking water, site: liver, lesion: hepatocellular adenoma + hepatocellular carcinoma + neoplastic nodule, dosed 103 weeks, study length 104 weeks) was 2450 mg/kg/day, the TD50 (mouse, strain B6C3F1, males, in drinking water, site: lung, lesion: alveolar/bronchiolar adenoma + alveolar/bronchiolar carcinoma, dosed 103 weeks, study length 104 weeks) was 8290 mg/kg/day and the carcinogen call (rat, strain Fischer 344, females, in drinking water, site: any site (literature study), lesion: several types, types named in the paper, dosed 103 weeks, study length 104 weeks) was “negative (inactive)”. For the same molecule, the TD50 (rat, strain Fischer 344, males, in drinking water, site: all sites, lesion: leukemia + lymphoma, dosed 103 weeks, study length 104 weeks) was 133 mg/kg/day, the TD50 (rat, strain Fischer 344, males, in drinking water, site: all sites, lesion: leukemia, dosed 103 weeks, study length 104 weeks) was 143 mg/kg/day and the TD50 (rat, strain Fischer 344, males, in drinking water, site: all sites, lesion: monocytic leukemia, dosed 103 weeks, study length 104 weeks) was 143 mg/kg/day. The TD50 (rat, strain Fischer 344, males, in drinking water, site: thyroid gland, lesion: c-cell carcinoma, dosed 103 weeks, study length 104 weeks) was 420 mg/kg/day (inactive).
Molecule `Cc1ncc[nH]1` has a TD50 (mouse, strain B6C3F1, females, in feed, site: any site (literature study), lesion: several types, types named in the paper, dosed 104 weeks, study length 104 weeks) of 729 mg/kg/day, a TD50 (mouse, strain B6C3F1, females, in feed, site: liver, lesion: hepatocellular adenoma + hepatoblastoma + hepatocellular carcinoma, dosed 104 weeks, study length 104 weeks) of 1620 mg/kg/day and a TD50 (mouse, strain B6C3F1, females, in feed, site: liver, lesion: hepatocellular adenoma, dosed 104 weeks, study length 104 weeks) of 1380 mg/kg/day. It also gave a TD50 (mouse, strain B6C3F1, males, in feed, site: any site (literature study), lesion: several types, types named in the paper, dosed 104 weeks, study length 104 weeks) of 866 mg/kg/day, a TD50 (mouse, strain B6C3F1, males, in feed, site: liver + thyroid gland, lesion: hepatocellular adenoma + hepatocellular carcinoma + follicular-cell adenoma, dosed 104 weeks, study length 104 weeks) of 378 mg/kg/day and a TD50 (mouse, strain B6C3F1, males, in feed, site: liver, lesion: hepatocellular adenoma + hepatoblastoma + hepatocellular carcinoma, dosed 104 weeks, study length 104 weeks) of 546 mg/kg/day. The TD50 (mouse, strain B6C3F1, males, in feed, site: liver, lesion: hepatocellular adenoma + hepatocellular carcinoma, dosed 104 weeks, study length 104 weeks) was 546 mg/kg/day, the TD50 (mouse, strain B6C3F1, males, in feed, site: liver, lesion: hepatocellular adenoma, dosed 104 weeks, study length 104 weeks) was 648 mg/kg/day and the TD50 (mouse, strain B6C3F1, males, in feed, site: liver, lesion: hepatocellular carcinoma, dosed 104 weeks, study length 104 weeks) was 378 mg/kg/day. It also gave a TD50 (mouse, strain B6C3F1, males, in feed, site: thyroid gland, lesion: follicular-cell adenoma, dosed 104 weeks, study length 104 weeks) of 1810 mg/kg/day, a TD50 (rat, strain Fischer 344, females, in feed, site: any site (literature study), lesion: several types, types named in the paper, dosed 105 weeks, study length 105 weeks) of 131 mg/kg/day and a TD50 (rat, strain Fischer 344, females, in feed, site: liver, lesion: hepatocellular adenoma + hepatoblastoma + hepatocellular carcinoma, dosed 105 weeks, study length 105 weeks) of 2000 mg/kg/day. The TD50 (rat, strain Fischer 344, females, in feed, site: liver, lesion: hepatocellular adenoma, dosed 105 weeks, study length 105 weeks) was 2000 mg/kg/day, the TD50 (rat, strain Fischer 344, females, in feed, site: thyroid gland, lesion: follicular-cell adenoma + follicular-cell carcinoma, dosed 105 weeks, study length 105 weeks) was 882 mg/kg/day and the TD50 (rat, strain Fischer 344, females, in feed, site: thyroid gland, lesion: follicular-cell adenoma, dosed 105 weeks, study length 105 weeks) was 2100 mg/kg/day. The TD50 (rat, strain Fischer 344, females, in feed, site: thyroid gland, lesion: follicular-cell carcinoma, dosed 105 weeks, study length 105 weeks) was 1380 mg/kg/day, the TD50 (rat, strain Fischer 344, males, in feed, site: any site (literature study), lesion: several types, types named in the paper, dosed 104 weeks, study length 104 weeks) was 303 mg/kg/day and the TD50 (rat, strain Fischer 344, males, in feed, site: liver, lesion: hepatocellular adenoma + hepatoblastoma + hepatocellular carcinoma, dosed 104 weeks, study length 104 weeks) was 663 mg/kg/day. The TD50 (rat, strain Fischer 344, males, in feed, site: liver, lesion: hepatocellular adenoma + hepatocellular carcinoma, dosed 104 weeks, study length 104 weeks) was 663 mg/kg/day, the TD50 (rat, strain Fischer 344, males, in feed, site: pancreatic islets, lesion: islet-cell adenoma, dosed 104 weeks, study length 104 weeks) was 1010 mg/kg/day and the TD50 (rat, strain Fischer 344, males, in feed, site: skin, lesion: basal-cell carcinoma + keratoacanthoma + trichoepithelioma, dosed 104 weeks, study length 104 weeks) was 624 mg/kg/day. For the same molecule, the TD50 (rat, strain Fischer 344, males, in feed, site: thyroid gland, lesion: follicular-cell adenoma + follicular-cell carcinoma, dosed 104 weeks, study length 104 weeks) was 854 mg/kg/day.
For `CCN(Cc1cccc(S(=O)(=O)O)c1)c1ccc(C(=C2C=CC(=[N+](CC)Cc3cccc(S(=O)(=O)[O-])c3)C=C2)c2ccc(S(=O)(=O)O)cc2)cc1`, the TD50 (mouse, strain C3HeB/FeJ, females, in feed, site: any site (literature study), lesion: malignant tumor, dosed 104 weeks, study length 104 weeks) was 152000 mg/kg/day (inactive), the TD50 (mouse, strain C3HeB/FeJ, females, in feed, site: any site (literature study), lesion: several types, types named in the paper, dosed 104 weeks, study length 104 weeks) was 148000 mg/kg/day and the TD50 (mouse, strain C3HeB/FeJ, females, in feed, site: lung, lesion: several types, types named in the paper, dosed 104 weeks, study length 104 weeks) was 43800 mg/kg/day. The TD50 (mouse, strain C3HeB/FeJ, males, in feed, site: any site (literature study), lesion: malignant tumor, dosed 104 weeks, study length 104 weeks) was 49300 mg/kg/day (inactive), the TD50 (mouse, strain C3HeB/FeJ, males, in feed, site: any site (literature study), lesion: several types, types named in the paper, dosed 104 weeks, study length 104 weeks) was 318000 mg/kg/day and the TD50 (mouse, strain C3HeB/FeJ, males, in feed, site: liver, lesion: several types, types named in the paper, dosed 104 weeks, study length 104 weeks) was 18900 mg/kg/day. For the same molecule, the TD50 (mouse, strain C3HeB/FeJ, males, in feed, site: lung, lesion: several types, types named in the paper, dosed 104 weeks, study length 104 weeks) was 58200 mg/kg/day, the carcinogen call (rat, strain Not specified, males, in feed, site: any site (literature study), lesion: one or several types, types not named, dosed 65 weeks, study length 65 weeks) was “negative (inactive)” and the carcinogen call (rat, strain Osborne-Mendel, females, in feed, site: any site (literature study), lesion: malignant tumor, dosed 104 weeks, study length 104 weeks) was “negative (inactive)”. For the same molecule, the carcinogen call (rat, strain Osborne-Mendel, females, in feed, site: any site (literature study), lesion: several types, types named in the paper, dosed 104 weeks, study length 104 weeks) was “negative (inactive)”, the carcinogen call (rat, strain Osborne-Mendel, females, in feed, site: liver, lesion: one or several types, types not named, dosed 104 weeks, study length 104 weeks) was “negative (inactive)” and the carcinogen call (rat, strain Osborne-Mendel, males, in feed, site: any site (literature study), lesion: malignant tumor, dosed 104 weeks, study length 104 weeks) was “negative (inactive)”. For the same molecule, the carcinogen call (rat, strain Osborne-Mendel, males, in feed, site: any site (literature study), lesion: several types, types named in the paper, dosed 104 weeks, study length 104 weeks) was “negative (inactive)”, the carcinogen call (rat, strain Osborne-Mendel, males, in feed, site: liver, lesion: hepatocellular adenoma, dosed 104 weeks, study length 104 weeks) was “negative (inactive)” and the TD50 (rat, strain Wistar, both sexes, in feed, site: cecum, lesion: malignant lymphoma, dosed 95 weeks, study length 95 weeks) was 5640 mg/kg/day.
